Assays:
[1] = system: SW480 cells; experiment: Cellular ruthenium accumulation (ICP-MS); type: cell-based, human; details: SW480, 2 h incubation, 37 °C
Experimental: SW480 cells were seeded at densities of 1.8 × 10^5 cells/well in 12-well plates (CytoOne, tissue culture treated) in 1 mL of supplemented MEM per well. (As CH1/PA-1 cells tend to detach during the required washing steps, cellular accumulation studies were performed only in SW480 cells). After 24 h, compounds dissolved in DMSO and diluted in MEM were added to the cells to final concentrations of 2 µM and 5 µM, and cells were incubated at 37 °C for 2 h. During incubation, the cell number was determined from three control wells of a plate seeded in parallel to the treatment plates. After the 2 h incubation, the medium was removed and all wells were washed with 3 × 1 mL PBS, and cells were lysed by adding 400 µL HNO3 per well for 1 h at room temperature. An amount of 300 µL of each lysate was added to 7.7 mL MilliQ water to get a total volume of 8 mL, and determination of the ruthenium content was carried out by ICP-MS. The measured amount of accumulated metal was normalized to the cell number and results were given in fg [Ru]/cell from at least three independent experiments. An Agilent 7800 ICP-MS instrument (Agilent Technologies, Tokyo, Japan) equipped with an Agilent SPS 4 autosampler (Agilent Technologies, Tokyo, Japan) was used to determine the ruthenium content. The ICP-MS parameters were tuned on a daily base to achieve high sensitivity. The ICP-MS was equipped with a MicroMist nebulizer with a sample uptake rate of ∼0.2 mL/min and standard nickel cones. The Agilent MassHunter software package (Workstation Software, Version C.01.04, 2018) was used for data evaluation. The instrumental parameters can be found in the supplementary information (Table S9).

[2] = system: SW480 cells; experiment: Colony formation assay; type: cell-based, human; details: SW480, 11 days, relative to untreated control
Experimental: For the colony formation assay, SW480 cells were seeded at a density of 350 cells/2 mL into each well of 6-well plates (CytoOne, tissue culture treated) and left to adhere for 24 h. To determine the long-term effects of the test compounds, the cells were exposed to them for 11 days at 37 °C and 5% CO2. After incubation, the wells were gently washed with 1 mL cold PBS and the colonies were fixed with 1 mL cold (4 °C) 100% methanol (Thermo Fisher, Waltham, MA, USA) for 30 min at 4 °C and washed with 1 mL PBS again. The fixed colonies were stained with 1 mL of 0.5% w/v crystal violet (Sigma-Aldrich) in methanol for 2 min and the plates were washed under tap water. After drying the plates, images of the wells were captured, and colonies were counted with the colony counting function of Fusion Fx7 software (Vilber Lourmat, Collégien, France). Results were normalized to untreated controls. Data are averaged from at least three independent experiments.

[3] = system: SW480 colon carcinoma cells; experiment: MTT assay (cytotoxicity); type: cell-based, human
Experimental: (§1) CH1/PA-1 ovarian teratocarcinoma cells (provided by L. R. Kelland, CRC Centre for Cancer Therapeutics, Institute of Cancer Research, Sutton, UK; confirmed by STR profiling as PA-1 ovarian teratocarcinoma cells at Multiplexion, Heidelberg, Germany), SW480 colon carcinoma and A549 non-small cell lung cancer cells (both obtained from the American Type Culture Collection, Manassas, VA, USA) were grown as adherent cultures in 75 cm² culture flasks (CytoOne, Starlab, Hamburg, Germany) by using minimal essential medium (MEM) supplemented with 1 mM sodium pyruvate, 4 mM L-glutamine, 1% (v/v) nonessential amino acids from 100-fold stock (all purchased from Sigma-Aldrich) and 10% heat-inactivated fetal bovine serum (BioWest, Nuaillé, France). Cells were maintained under standard culture conditions with 5% CO2 at 37 °C in a humidified atmosphere.
(§2) The 3-(4,5-dimethylthiazol-2-yl)-2,5-diphenyl-2H-tetrazolium bromide (MTT, Acros Organics, Geel, Belgium) assay was used to detect the cytotoxicity of the compounds after 24 h and 96 h incubation. In brief, cells were harvested from culture flasks and the following cell numbers (each in 100 µL) were seeded into 96-well culture plates (CytoOne, tissue culture treated, Starlab, Hamburg, Germany) for 24 h incubation: 1 × 10^4 (CH1/PA-1), 1 × 10^4 (SW480) and 1.5 × 10^4 (A549) cells per well; and for 96 h incubation: 1 × 10^3 (CH1/PA-1), 2 × 10^3 (SW480) and 3 × 10^3 (A549) cells per well. After 24 h, cells resuming their exponential growth rate were treated with test compounds at nine concentrations obtained by serial two-fold dilution. Stock solutions were prepared in DMSO (20 mM or 40 mM) and diluted in supplemented MEM. An amount of 100 µL of each concentration was added to the plates in triplicates and cells were exposed for 24 or 96 h. Afterward, the medium was replaced with 100 µL of MTT solution (5 mg/mL) in phosphate-buffered saline (PBS, Sigma-Aldrich), diluted 1:7 in RPMI 1640 medium (supplemented with 4 mM L-glutamine and 10% heat-inactivated FBS). Upon cell-viability-dependent conversion of the yellow, water-soluble tetrazolium salt into purple formazan products for 4 h, the crystals were dissolved in 150 µL DMSO. The absorbance of the resulting solutions, which is directly proportional to the number of viable cells, was measured at 550 nm (and at 690 nm as a reference) with a microplate reader (ELx808, BioTek, Winoosky, VT, USA) and Gen5TM 3.08 software (BioTek). Blank-corrected optical densities were subjected to graphical evaluation and interpolation of IC50 values. At least three biologically and technically independent experiments were performed.

[4] = system: CH1/PA-1 ovarian teratocarcinoma cells; experiment: MTT assay (cytotoxicity); type: cell-based, human; details: CH1/PA-1, MTT
Experimental: as §1, §2

[5] = system: A549 non-small cell lung cancer cells; experiment: MTT assay (cytotoxicity); type: cell-based, human
Experimental: as §1, §2

[6] = system: SW480 cells; experiment: Apoptosis assay (annexin V-FITC/PI, flow cytometry); details: SW480, 24 h; for early apoptotic cells / late apoptotic cells / necrotic cells / viable cells: mean ± SD
Experimental: Cell death induction was quantitatively analyzed via flow cytometry using double staining with FITC-conjugated annexin V (eBioscience, San Diego, CA, USA) and propidium iodide (PI, 1.0 mg/mL, Sigma-Aldrich). SW480 cells were seeded into 24-well plates (7 × 10^4 cells/well) in 600 µL MEM per well and allowed to settle for 24 h. Afterward, cells were exposed to two or three different concentrations (0.1–100 µM) of the compounds (based on their cytotoxic activity) for 24 h. After treatment, the medium was collected, and cells were washed once with 37 °C warm PBS and harvested. Following trypsinization, the cell suspension was added to the pre-collected medium and cells were centrifuged (300 g, 3 min). The supernatant was removed, and the cell pellet was resuspended with 1.5 µL FITC-conjugated annexin V in 150 µL binding buffer (10 mM HEPES/NaOH pH 7.4, 140 mM NaCl and 2.5 mM CaCl2) and incubated at 37 °C for 15 min. An amount of 1 µL of propidium iodide (PI, Thermo Fisher) was added shortly before flow-cytometric analysis using a Guava easyCyte 8HT instrument (Merck Millipore, Burlington, MA, USA) with InCyte software. Results were quantified by using the FlowJo software (TreeStar). At least three independent experiments were conducted.

In the case of `CC1=C([O-])C([O-])(n2cccn2)c2ccccc2C1=O.Cc1c(C)c(C)c(C)c(C)c1C.[Ru+2]` (stereo not drawn) [Compound 6], the “Ru [102]/cell (cellular accumulation)” value ([1]; 2 µM) is reported as 100 ± 15 fg, the “Ru [102]/cell (cellular accumulation)” value ([1]; 5 µM) is reported as 206 ± 32 fg and the Number of colonies ([2]; 0.16 µM) is reported as 28 ± 12%. The Number of colonies ([2]; 0.31 µM) was 9.2 ± 3.2%, the Number of colonies ([2]; 0.63 µM) was 1.2 ± 1.1% and the IC50 ([3]; 24 h exposure) was 2.8 ± 1.6 µM. The IC50 ([3]; 96 h exposure) was 0.27 ± 0.06 µM, the IC50 ([4]; 24 h exposure) was 57 ± 16 µM and the IC50 ([4]; 96 h exposure) was 35 ± 4 µM. The IC50 ([5]; 24 h exposure) was 38 ± 21 µM, the IC50 ([5]; 96 h exposure) was 3.4 ± 0.6 µM and the early apoptotic cells ([6]; 0.1 µM) was 1.0 ± 0.7%. It also gave a late apoptotic cells ([6]; 0.1 µM) of 4.7 ± 2.8%, a necrotic cells ([6]; 0.1 µM) of 17 ± 27% and a viable cells ([6]; 0.1 µM) of 77 ± 29%. For the same molecule, the early apoptotic cells ([6]; 1 µM) was 1.1 ± 07%, the late apoptotic cells ([6]; 1 µM) was 2.0 ± 0.7% and the necrotic cells ([6]; 1 µM) was 1.0 ± 1.3%. It also gave a viable cells ([6]; 1 µM) of 96 ± 2%, an early apoptotic cells ([6]; 10 µM) of 1.1 ± 0.3% and a late apoptotic cells ([6]; 10 µM) of 3.7 ± 0.1%. For the same molecule, the necrotic cells ([6]; 10 µM) was 0.94 ± 0.52%, the viable cells ([6]; 10 µM) was 94 ± 0% and the “Apoptosis / necrosis induction (in words)” value ([6]; concentrations covering the IC50 range) was “neither apoptotic nor necrotic cells exceeded the percentages in untreated controls”.
